*: point of attachment. CH2Cl = ClC*
Tested on: coronary arteries of pigs
Test: Balloon angioplasty and stent implantation in pig coronary arteries, IVUS assessment of neointimal proliferation after 4 weeks
Type: in vivo, Domestic pigs
Settings: local administration via perfusion balloon, 4 weeks after balloon angioplasty and stent implantation, 7 pigs per group

“Ac-Tyr-Val-Ala-Asp-chloromethylketone (Ac-YVAD-CH2Cl) [Ac-YVAD-CMK]” was tested, and the “reduction of maximum plaque area in comparison with the negative control group” value (fraction of control value) was “approximately ⅓”, the “reduction of plaque volume in comparison with the negative control group” value (fraction of control value) was “approximately ⅙” and the “reduction of the stenotisized area in comparison with the negative control group” value (percent of control value) was “approximately 40%”.
